Laboratory results as given in ChEMBL document CHEMBL1153762, “Novel, broad-spectrum anticonvulsants containing a sulfamide group: advancement of N-((benzo[b]thien-3-yl)methyl)sulfamide (JNJ-26990990) into human clinical studies” (J Med Chem, 2009).
The source made the active and inactive calls.

Assays:
[1] = Plasma concentration in rat at 30 mg/kg, po after 2 hrs by LC/MS analysis; format: ADME, organism-based; design: dose 30 mg/kg, route oral
Mus musculus [2] = experiment: Anticonvulsant activity against pentylenetetrazole-induced seizure in ip dosed CF1 mouse after 0.25 hrs; format: functional; settings: Mus musculus, CF1, ip, 0.25 h; read-out: ED50
[3] = Half life in mouse at 30 mg/kg, po administered as bolus dose; format: ADME, organism-based; design: dose 30 mg/kg, route oral; settings: in vivo
Mus musculus [4] = experiment: Anticonvulsant activity against bicuculline-induced seizure in ip dosed CF1 mouse after 0.25 hrs; format: functional; settings: Mus musculus, CF1, ip, 0.25 h; read-out: ED50
Rattus norvegicus [5] = experiment: Anticonvulsant activity against maximal electroshock-induced seizure in po dosed Sprague-Dawley rat after 2 hrs; format: functional; settings: Rattus norvegicus, Sprague-Dawley, po, 2 h; read-out: ED50
Rattus norvegicus [6] = experiment: Anticonvulsant activity against electric stimulation-induced focal seizure in ip dosed Sprague-Dawley rat kindling model assessed as reduction of after-discharge duration administered 15 mins after last electric stimulation measured after 15 mins to 1 hr; format: functional; design: scale not given: the % may be the effect or the level left
Mus musculus [7] = experiment: Anticonvulsant activity against picrotoxin-induced seizure in ip dosed CF1 mouse after 0.25 hrs; format: functional
[8] = biological target: Sodium channel protein type 2 subunit alpha (Rattus norvegicus) (UniProt P04775); experiment: Inhibition of rat Nav1.2 channel expressed in chinese hamster CHL1610 cells at preconditioning pulse of -107 mV after 2 to 3 mins by whole-cell patch-clamp technique; format: cell-based
Chain of Sodium channel protein type 2 subunit alpha (Rattus norvegicus) (P04775 whole entry, looked up): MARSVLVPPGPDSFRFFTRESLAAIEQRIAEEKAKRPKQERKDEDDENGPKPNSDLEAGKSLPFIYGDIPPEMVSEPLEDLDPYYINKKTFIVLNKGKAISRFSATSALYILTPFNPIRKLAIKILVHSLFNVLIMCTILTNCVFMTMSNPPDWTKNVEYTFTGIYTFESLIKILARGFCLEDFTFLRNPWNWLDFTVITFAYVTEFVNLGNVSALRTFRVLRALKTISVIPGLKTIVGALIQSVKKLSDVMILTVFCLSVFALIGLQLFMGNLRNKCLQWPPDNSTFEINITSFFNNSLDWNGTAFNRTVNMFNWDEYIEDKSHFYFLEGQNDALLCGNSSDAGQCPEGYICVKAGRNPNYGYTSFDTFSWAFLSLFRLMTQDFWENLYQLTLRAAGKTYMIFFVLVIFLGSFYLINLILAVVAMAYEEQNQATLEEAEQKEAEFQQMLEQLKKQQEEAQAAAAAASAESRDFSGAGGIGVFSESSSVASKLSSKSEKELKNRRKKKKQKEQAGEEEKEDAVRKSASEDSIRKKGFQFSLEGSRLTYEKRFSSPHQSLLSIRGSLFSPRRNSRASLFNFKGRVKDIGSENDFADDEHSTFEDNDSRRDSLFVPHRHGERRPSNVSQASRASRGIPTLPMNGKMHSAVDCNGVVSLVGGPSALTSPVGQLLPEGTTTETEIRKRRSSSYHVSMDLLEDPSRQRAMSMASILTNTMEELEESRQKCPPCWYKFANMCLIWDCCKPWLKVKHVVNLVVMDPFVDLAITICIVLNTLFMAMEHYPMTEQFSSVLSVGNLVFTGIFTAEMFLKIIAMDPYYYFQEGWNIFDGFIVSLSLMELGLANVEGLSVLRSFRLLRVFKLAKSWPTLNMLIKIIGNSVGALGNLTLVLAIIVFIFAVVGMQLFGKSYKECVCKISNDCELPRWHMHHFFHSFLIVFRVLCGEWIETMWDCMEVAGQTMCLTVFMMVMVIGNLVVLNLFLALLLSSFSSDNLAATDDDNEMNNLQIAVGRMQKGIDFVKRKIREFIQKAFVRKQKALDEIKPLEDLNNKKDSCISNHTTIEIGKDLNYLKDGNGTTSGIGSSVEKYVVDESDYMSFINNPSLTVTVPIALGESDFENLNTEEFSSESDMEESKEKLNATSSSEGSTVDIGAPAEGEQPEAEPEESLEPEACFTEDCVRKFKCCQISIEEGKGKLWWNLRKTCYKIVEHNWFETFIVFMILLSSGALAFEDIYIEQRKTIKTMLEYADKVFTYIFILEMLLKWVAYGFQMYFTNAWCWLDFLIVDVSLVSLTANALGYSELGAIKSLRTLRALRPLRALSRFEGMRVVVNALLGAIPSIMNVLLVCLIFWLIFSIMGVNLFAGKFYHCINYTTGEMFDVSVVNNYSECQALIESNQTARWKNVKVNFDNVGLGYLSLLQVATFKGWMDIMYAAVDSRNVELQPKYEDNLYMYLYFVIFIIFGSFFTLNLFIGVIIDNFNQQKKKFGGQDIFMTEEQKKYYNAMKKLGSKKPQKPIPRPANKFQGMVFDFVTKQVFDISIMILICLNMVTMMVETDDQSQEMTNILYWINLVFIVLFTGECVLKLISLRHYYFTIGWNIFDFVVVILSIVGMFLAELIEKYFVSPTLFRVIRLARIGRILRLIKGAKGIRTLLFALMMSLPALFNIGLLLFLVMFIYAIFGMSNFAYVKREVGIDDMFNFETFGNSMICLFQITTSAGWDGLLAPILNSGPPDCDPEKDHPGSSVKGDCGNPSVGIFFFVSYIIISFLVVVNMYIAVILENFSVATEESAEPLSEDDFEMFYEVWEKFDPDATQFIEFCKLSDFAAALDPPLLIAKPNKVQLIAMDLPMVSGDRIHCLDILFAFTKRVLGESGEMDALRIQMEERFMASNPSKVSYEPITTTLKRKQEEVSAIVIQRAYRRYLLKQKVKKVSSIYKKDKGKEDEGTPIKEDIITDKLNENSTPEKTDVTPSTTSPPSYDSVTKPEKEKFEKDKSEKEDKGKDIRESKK

Mus musculus [9] = experiment: Anticonvulsant activity against audiogenic seizures in ip dosed AGS mouse assessed as inhibition of hindlimb tonic extension administered 1 hr prior to 11 kHz sound induction; format: functional; settings: Mus musculus, AGS, Hindlimb, ip; read-out: ED50
Plasma [10] = experiment: Metabolic stability in rat plasma assessed as formation of N-[(1-oxido-1-benzothien-3-yl)methyl]sulfamide at 59.2 kBq/mg, po after 4 hrs by MS/MS analysis; format: ADME, organism-based; settings: in vivo
[11] = Bioavailability in rat at 10 mg/kg, po; format: ADME, organism-based; settings: in vivo
Mus musculus [12] = experiment: Ratio of compound ED50 to topiramate ED50 for anticonvulsant activity against audiogenic seizures in ip dosed AGS mouse; format: functional
[13] = Plasma concentration in rat assessed as unchanged compound remaining at 59.2 kBq/mg, po after 4 hrs by MS/MS analysis; format: ADME, organism-based; settings: read-out: Activity
Mus musculus [14] = experiment: Anticonvulsant activity against pentylenetetrazole-induced seizure in CF1 mouse assessed as increase in threshold of seizure twitch at 182 mg/kg, ip administered 15 mins before pentylenetetrazole infusion; format: functional; settings: route intraperitoneal
[15] = biological target: Sodium channel protein type 2 subunit alpha (Rattus norvegicus, UniProt P04775); experiment: (§1) Inhibition of rat Nav1.2 channel expressed in chinese hamster CHL1610 cells at preconditioning pulse of -67 mV after 2 to 3 mins by whole-cell patch-clamp technique; format: cell-based
Chain of Sodium channel protein type 2 subunit alpha (P04775 whole entry): as the sequence (P04775 whole entry, looked up) above

[16] = biological target: Sodium channel protein type 2 subunit alpha (Rattus norvegicus) (UniProt P04775); experiment: as §1; format: cell-based
Mus musculus [17] = species: Mus musculus; experiment: Inhibition of kainate receptor in mouse cortical neuron assessed as inhibition of kainic acid-induced receptor current at 100 uM by whole-cell patch-clamp technique
Carbonic anhydrase 2 = Carbonic anhydrase 2 (Homo sapiens, UniProt P00918); experiment: Inhibition of human carbonic anhydrase 2 by fluorimetric assay
[18] = Drug level in rat brain at 30 mg/kg, po after 2 hrs by LC/MS analysis; format: ADME, organism-based; design: dose 30 mg/kg, route oral; settings: read-out: Drug uptake
[19] = Cmax in mouse at 30 mg/kg, po administered as bolus dose; format: ADME, organism-based; design: dose 30 mg/kg, route oral; settings: in vivo
[20] = Metabolic stability in mouse liver microsomes assessed as compound remaining at 2 uM after 10 mins; format: ADME, Microsome; settings: read-out: Stability
[21] = Bioavailability in mouse at 30 mg/kg, po and 3 mg/kg, iv administered as bolus dose; format: ADME, organism-based; settings: in vivo
[22] = Half life in human liver microsomes at 2 uM; format: ADME, Microsome
[23] = biological target: Voltage-dependent N-type calcium channel subunit alpha-1B (Rattus norvegicus) (UniProt Q02294); experiment: Inhibition of rat Cav2.2 channel expressed in 0.07 Hz frequency-stimulated HEK cells at 30 uM by whole-cell patch-clamp technique; format: cell-based; settings: HEK293
Chain of Voltage-dependent N-type calcium channel subunit alpha-1B (Rattus norvegicus) (Q02294 whole entry, looked up): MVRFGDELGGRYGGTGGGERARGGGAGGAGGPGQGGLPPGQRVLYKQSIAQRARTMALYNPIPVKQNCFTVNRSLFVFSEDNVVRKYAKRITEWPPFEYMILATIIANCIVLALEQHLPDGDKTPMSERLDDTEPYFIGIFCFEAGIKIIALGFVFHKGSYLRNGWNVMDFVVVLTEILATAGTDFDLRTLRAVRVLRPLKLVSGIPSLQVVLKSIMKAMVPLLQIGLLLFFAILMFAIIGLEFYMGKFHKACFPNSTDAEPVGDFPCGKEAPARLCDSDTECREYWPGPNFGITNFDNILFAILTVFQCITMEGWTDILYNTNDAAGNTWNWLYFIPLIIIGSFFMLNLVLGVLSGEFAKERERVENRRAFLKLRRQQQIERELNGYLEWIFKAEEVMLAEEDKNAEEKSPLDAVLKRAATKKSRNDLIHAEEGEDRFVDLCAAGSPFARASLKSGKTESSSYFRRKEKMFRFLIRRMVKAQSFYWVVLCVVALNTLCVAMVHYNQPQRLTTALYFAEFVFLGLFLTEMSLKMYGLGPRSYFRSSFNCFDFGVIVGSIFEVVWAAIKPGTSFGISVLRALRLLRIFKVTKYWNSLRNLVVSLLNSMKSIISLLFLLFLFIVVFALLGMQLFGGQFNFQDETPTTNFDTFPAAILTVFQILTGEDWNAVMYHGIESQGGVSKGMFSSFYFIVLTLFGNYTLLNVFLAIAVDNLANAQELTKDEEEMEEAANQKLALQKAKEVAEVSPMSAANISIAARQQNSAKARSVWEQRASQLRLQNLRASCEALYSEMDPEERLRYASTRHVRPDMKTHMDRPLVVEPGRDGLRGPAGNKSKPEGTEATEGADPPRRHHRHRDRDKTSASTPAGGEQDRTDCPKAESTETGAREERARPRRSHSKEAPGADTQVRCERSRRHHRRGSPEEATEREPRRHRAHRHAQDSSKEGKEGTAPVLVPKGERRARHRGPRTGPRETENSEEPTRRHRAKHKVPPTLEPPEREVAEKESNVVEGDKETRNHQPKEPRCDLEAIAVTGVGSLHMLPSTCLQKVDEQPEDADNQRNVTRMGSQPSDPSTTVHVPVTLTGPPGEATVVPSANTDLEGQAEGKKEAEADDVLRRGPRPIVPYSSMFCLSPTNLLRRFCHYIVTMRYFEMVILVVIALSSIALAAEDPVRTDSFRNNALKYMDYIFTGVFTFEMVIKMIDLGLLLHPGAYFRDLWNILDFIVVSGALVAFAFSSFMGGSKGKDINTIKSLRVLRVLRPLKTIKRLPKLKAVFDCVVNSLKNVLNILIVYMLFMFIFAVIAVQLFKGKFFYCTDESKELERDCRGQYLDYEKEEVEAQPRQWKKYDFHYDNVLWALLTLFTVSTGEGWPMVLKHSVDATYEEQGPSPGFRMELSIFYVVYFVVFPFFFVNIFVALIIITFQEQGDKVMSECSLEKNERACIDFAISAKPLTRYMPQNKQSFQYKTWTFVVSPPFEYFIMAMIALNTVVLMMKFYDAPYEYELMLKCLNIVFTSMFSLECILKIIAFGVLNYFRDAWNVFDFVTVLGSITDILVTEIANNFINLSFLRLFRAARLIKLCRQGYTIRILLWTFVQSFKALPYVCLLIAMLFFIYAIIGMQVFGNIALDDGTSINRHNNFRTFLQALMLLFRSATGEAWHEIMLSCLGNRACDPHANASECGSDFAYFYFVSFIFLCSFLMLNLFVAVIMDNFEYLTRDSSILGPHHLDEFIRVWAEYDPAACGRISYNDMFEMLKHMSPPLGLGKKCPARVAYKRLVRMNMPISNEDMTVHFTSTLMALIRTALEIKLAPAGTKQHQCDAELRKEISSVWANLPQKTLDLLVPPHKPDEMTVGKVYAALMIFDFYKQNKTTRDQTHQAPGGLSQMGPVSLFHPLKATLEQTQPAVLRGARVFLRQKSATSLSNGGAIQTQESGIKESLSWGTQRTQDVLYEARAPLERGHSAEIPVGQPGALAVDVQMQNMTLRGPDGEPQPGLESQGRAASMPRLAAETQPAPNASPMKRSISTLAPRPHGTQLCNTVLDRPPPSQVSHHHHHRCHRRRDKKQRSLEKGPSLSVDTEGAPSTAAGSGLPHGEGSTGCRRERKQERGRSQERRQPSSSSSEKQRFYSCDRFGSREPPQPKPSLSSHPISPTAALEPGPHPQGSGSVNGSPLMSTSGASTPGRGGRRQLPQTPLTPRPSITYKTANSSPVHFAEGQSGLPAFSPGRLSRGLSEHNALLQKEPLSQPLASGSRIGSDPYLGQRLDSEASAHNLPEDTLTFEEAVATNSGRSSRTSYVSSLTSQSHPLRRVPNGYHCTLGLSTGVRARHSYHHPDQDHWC

[24] = biological target: Voltage-dependent N-type calcium channel subunit alpha-1B (Rattus norvegicus) (UniProt Q02294); experiment: Inhibition of rat Cav2.2 channel expressed in HEK cells assessed as depolarization-induced calcium influx by fluorescence-based assay; format: cell-based; settings: HEK293
[25] = Neurotoxicity in po dosed rat assessed as motor impairment by rotarod test; format: toxicity, organism-based; settings: in vivo
Mus musculus [26] = experiment: Anticonvulsant activity against pentylenetetrazole-induced seizure in CF1 mouse assessed as increase in threshold of seizure twitch at 107 mg/kg, ip administered 15 mins before pentylenetetrazole infusion; format: functional; settings: route intraperitoneal
Rattus norvegicus [27] = experiment: Protective index, ratio of TD50 for neurotoxicity in po dosed rat to ED50 for anticonvulsant activity against maximal electroshock-induced seizure in po dosed rat; format: functional
Mus musculus [28] = experiment: Anticonvulsant activity against pentylenetetrazole-induced seizure in CF1 mouse assessed as increase in seizure threshold for clonus at 107 mg/kg, ip administered 15 mins before pentylenetetrazole infusion; format: functional; settings: route intraperitoneal
[29] = Half life in mouse at 3 mg/kg, iv administered as bolus dose; format: ADME, organism-based; design: dose 3 mg/kg, route intravenous; settings: in vivo
[30] = Metabolic stability in human liver microsomes assessed as compound remaining at 2 uM after 10 mins; format: ADME, Microsome; settings: read-out: Stability
[31] = biological target: Voltage-dependent N-type calcium channel subunit alpha-1B (Rattus norvegicus) (UniProt Q02294); experiment: Inhibition of rat Cav2.2 channel expressed in 5 Hz frequency-stimulated HEK cells at 30 uM by whole-cell patch-clamp technique; format: cell-based; settings: HEK293
[32] = Neurotoxicity in ip dosed mouse assessed as motor impairment by rotarod test; format: toxicity, organism-based; settings: in vivo
[33] = biological target: Potassium voltage-gated channel subfamily KQT member 2 (Rattus norvegicus) (UniProt O88943); experiment: Activation of rat Kv7.2 assessed as increase in channel current at membrane potential of -70 to -3- mV at 300 uM by whole-cell patch-clamp technique; format: cell membranes
Plasma [34] = experiment: Metabolic stability in rat plasma assessed as formation of biotransformation product N-[(1-oxido-1-benzothien-3-yl)methyl]sulfamide at 500 mg, po up to 72 hrs by MS/MS analysis; format: ADME, organism-based; settings: in vivo
[35] = Metabolic stability in rat urine assessed as formation of [(Benzo[b]thiophene-3-carbonyl)-amino]-acetic acid at 59.2 kBq/mg, po after 8 to 24 hrs by MS/MS analysis; format: ADME, organism-based; settings: in vivo
[36] = Ratio of drug level in brain to plasma in rat at 30 mg/kg, po up to 6 hrs; format: ADME, organism-based; design: dose 30 mg/kg, route oral; settings: brain and plasma, read-out: BPR
Mus musculus [37] = experiment: Anticonvulsant activity against maximal electroshock-induced seizure in po dosed CF1 mouse after 3 hrs; format: functional
[38] = biological target: Voltage-dependent N-type calcium channel subunit alpha-1B (Rattus norvegicus) (UniProt Q02294); experiment: (§2) Inhibition of rat Cav2.2 channel expressed in 0.07 Hz frequency-stimulated HEK cells by whole-cell patch-clamp technique; format: cell-based; settings: HEK293
[39] = biological target: Voltage-dependent N-type calcium channel subunit alpha-1B (Rattus norvegicus, UniProt Q02294); experiment: as §2; format: cell-based, HEK293
Chain of Voltage-dependent N-type calcium channel subunit alpha-1B (Q02294 whole entry): as the sequence (Q02294 whole entry, looked up) above

[40] = Metabolic stability in rat urine assessed as formation of benzothiophene-3-carboxylic acid at 59.2 kBq/mg, po after 8 to 24 hrs by MS/MS analysis; format: ADME, organism-based; settings: in vivo
[41] = Metabolic stability in rat urine assessed as formation of N-[(1-oxido-1-benzothien-3-yl)methyl]sulfamide at 59.2 kBq/mg, po after 24 hrs by MS/MS analysis; format: ADME, organism-based; settings: in vivo
[42] = Bioavailability in rat at 2 mg/kg, po; format: ADME, organism-based; settings: in vivo
Plasma [43] = experiment: Metabolic stability in rat plasma assessed as formation of benzothiophene-3-carboxylic acid at 59.2 kBq/mg, po after 4 hrs by MS/MS analysis; format: ADME, organism-based; settings: in vivo
Mus musculus [44] = experiment: Total body water content in mouse at 30 mg/kg, po and 3 mg/kg, iv administered as bolus dose; format: ADME, organism-based; settings: in vivo
Mus musculus [45] = species: Mus musculus; experiment: Inhibition of NMDA receptor in mouse cortical neuron assessed as inhibition of glycine-induced receptor current at 100 uM by whole-cell patch-clamp technique
Mus musculus [46] = experiment: Anticonvulsant activity against maximal electroshock-induced seizure in po dosed CF1 mouse after 1 hr; format: functional; settings: Mus musculus, CF1, po, 1 h; read-out: ED50
Carbonic anhydrase 1 = Carbonic anhydrase 1 (Homo sapiens, UniProt P00915); experiment: Inhibition of carbonic anhydrase 1
Chain of Carbonic anhydrase 1 (P00915 whole entry): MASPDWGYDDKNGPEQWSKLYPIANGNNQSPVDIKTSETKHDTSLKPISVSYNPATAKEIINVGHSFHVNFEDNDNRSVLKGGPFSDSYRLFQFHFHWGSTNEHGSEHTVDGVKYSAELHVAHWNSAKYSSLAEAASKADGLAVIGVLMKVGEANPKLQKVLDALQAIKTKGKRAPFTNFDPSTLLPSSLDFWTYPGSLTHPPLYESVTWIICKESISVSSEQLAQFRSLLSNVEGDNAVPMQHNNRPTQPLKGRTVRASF

[47] = Metabolic stability in rat urine assessed as formation of biotransformation product N-[(1-oxido-1-benzothien-3-yl)methyl]sulfamide at 500 mg, po up to 24 hrs by MS/MS analysis; format: ADME, organism-based; settings: in vivo
Rattus norvegicus [48] = experiment: Total body water content in rat at 2 mg/kg, iv; format: ADME, organism-based; design: dose 2 mg/kg, route intravenous; settings: in vivo
[49] = Clearance in mouse at 30 mg/kg, po and 3 mg/kg, iv administered as bolus dose; format: ADME, organism-based; settings: in vivo
Mus musculus [50] = species: Mus musculus; experiment: Activation of GABA receptor in mouse cortical neuron assessed as increase in GABA-induced receptor current at 100 uM by whole-cell patch-clamp technique
[51] = Volume of distribution at steady state in mouse at 30 mg/kg, po and 3 mg/kg, iv administered as bolus dose; format: ADME, organism-based; settings: in vivo, read-out: Vdss
[52] = Metabolic stability in rat liver microsomes assessed as compound remaining at 2 uM after 10 mins; format: ADME, Microsome; settings: read-out: Stability
Mus musculus [53] = experiment: Anticonvulsant activity against pentylenetetrazole-induced seizure in CF1 mouse assessed as increase in seizure threshold for clonus at 182 mg/kg, ip administered 15 mins before pentylenetetrazole infusion; format: functional; settings: route intraperitoneal

Question: What does the source list for `NS(=O)(=O)NCc1csc2ccccc12`?
Answer: concentration at 2 h [1]: 19 µM; ED50 (Mus musculus [2]): 161 mg/kg; half-life [3]: 1.5 h; ED50 (Mus musculus [4]): 156 mg/kg; ED50 (Rattus norvegicus [5]): 34 mg/kg; Activity (Rattus norvegicus [6]): 64%; ED50 (Mus musculus [7]): 106 mg/kg; inhibition [8]: inactive; ED50 (Mus musculus [9]): 21 mg/kg; Activity (Plasma [10]): 31%; bioavailability [11]: 96%; Ratio ED50 (Mus musculus [12]): 5; remaining at 4 h [13]: 60%; Activity (Mus musculus [14]): 141%; IC50 [15]: 48 µM; inhibition [16]: Dose-dependent effect; inhibition (Mus musculus [17]): 8%; IC50 (Carbonic anhydrase 2): 66 µM; concentration at 2 h [18]: 47 µM; Cmax [19]: 3900 ng/mL; remaining at 10 min, 2 µM [20]: 83%; bioavailability [21]: 59%; half-life at 2 µM [22]: > 1.67 h; inhibition [23]: 20%; inhibition [24]: Dose-dependent effect; TD50 [25]: > 500 mg/kg; Activity (Mus musculus [26]): 129%; Ratio TD50/ED50 (Rattus norvegicus [27]): >15; Activity (Mus musculus [28]): 147%; half-life [29]: 1.5 h; remaining at 10 min, 2 µM [30]: 90%; inhibition [31]: 30%; TD50 [32]: 182 mg/kg; Activity [33]: inactive; Activity (Plasma [34]): 78%; Activity [35]: 4.2%; Kp at 6 h [36]: 2.5; ED50 (Mus musculus [37]): 119 mg/kg; inhibition [38]: Dose-dependent effect; IC50 [39]: 133 µM; Activity [40]: 0.5%; Activity [41]: 48%; bioavailability [42]: 89%; Activity (Plasma [43]): 9%; Activity (Mus musculus [44]): 725 mL/kg; inhibition (Mus musculus [45]): 23%; ED50 (Mus musculus [46]): 107 mg/kg; IC50 (Carbonic anhydrase 1): 25 µM; Activity [47]: 46%; Activity (Rattus norvegicus [48]): 670 mL/kg; clearance [49]: 30 mL/min/kg; inhibition (Mus musculus [50]): 2%; Vd [51]: 2.9 L/kg; remaining at 10 min, 2 µM [52]: 76%; Activity (Mus musculus [53]): 159%
